{
  "source": "paper PMC10132233",
  "about": "(Journal of Enzyme Inhibition and Medicinal Chemistry, 2023)",
  "key": {"[1]": {"target": "T1, cyclin-dependent kinase 2 (CDK2) (Homo sapiens, UniProt P24941)", "T1 construct": "purchased Reaction Biology Co. (Malvern, PA)", "assay": "Small kinase panel, CDK2", "assay_type": "biochemical", "details": "read-out: % kinase inhibition (relative to DMSO control) CDK2", "experimental": "(§1) Enzyme inhibitory assays were carried out as described in our previous reports in the literature. […] The HotSpot assay platform includes specific kinase/substrate pairs and required cofactors. The base reaction buffer consisted of 20 mM Hepes (pH 7.5), 10 mM MgCl2, 1 mM EGTA, 0.02% Brij35, 0.02 mg/mL BSA, 0.1 mM Na3VO4, 2 mM DTT, and 1% DMSO. The tested compounds were dissolved in 100% DMSO to a specific concentration, and serial dilution was conducted. The reaction mixture containing the tested compound and 33P-ATP was incubated at room temperature for 2 h, and radioactivity was detected using the filter-binding method."}, "[2]": {"test_system": "PC3 cells", "assay": "Cell cycle analysis (PI, ADAMII LS), PC3", "assay_type": "cell-based, human", "details": "PC3, compound at its IC50, 24 h", "experimental": "(§2) Cell cycle progression is responsible for normal cell growth and proliferation. DNA damage can result in apoptosis, which causes cell death, or DNA repair. At specific checkpoints that serve as control mechanisms to guarantee correct cell division, the state of the cells is evaluated. Checkpoints in the cell cycle include the G1 (restriction), S […], and G2/M[29]. Anticancer medications’ function is to halt cell division at these checkpoints. Treatment with potent cytotoxic (as an anticancer) agents can determine at which phase apoptosis occurs in the cell cycle. […] PC3 and 22RV1 cells were treated with compound 9f at its IC50. The comparison data in Table 6 and Figure 3 indicate that compound 9f (test 2) arrested the cell cycle of 22RV1 and PC3 cells at the G2/M phase by 62.74% and 49.43%, respectively (Figure 3). Also, the cell population in G1 and S phases decreases after treatment (test 2) compared to a negative control (test 1).\n(§3) To determine the effect of the tested compound on the cell cycle distribution of PC3 and 22RV1 cell lines. Cell cycles can be analysed with checking the cell cycle change compared to the control group. Control cells without any treatment were used as a reference point for determining the cell cycle arrest phase for the test sample. Cell cycle analysis was performed using the Cell Cycle Analysis Kit (ADAMII LS, NanoEntek, Seoul, South Korea). Briefly, cancer cells were first seeded in six-well plates (0.8 × 10^6 cells per well) and then incubated for 24 h at 37 °C in a 5% CO2-containing atmosphere. […] 25 µL of sample mixture was loaded into ADAMII LS assay slide, then the slide was incubated at room temperature for 1 min in the dark and run on the ADAMII LS fluorescence cell analyser. Cell cycle distribution was calculated using ADAMII LS software (ADAMII LS, NanoEntek, Seoul, South Korea)."}, "[3]": {"test_system": "22RV1 cells", "assay": "Cell cycle analysis (PI, ADAMII LS), 22RV1", "assay_type": "cell-based, human", "details": "22RV1, compound at its IC50, 24 h", "experimental": "as §2, §3"}, "[4]": {"test_system": "PC3 cells", "assay": "Apoptosis analysis (Annexin V-PE/DAPI), PC3", "assay_type": "cell-based, human", "details": "PC3, compound at its IC50, 24 h", "experimental": "The control PC3 and 22RV1 cells and compound-treated cells were stained with PE-Annexin V and DAPI for a more appropriate cell death examination, and the cellular fluorescence analysis was then performed using ADAMII LS (Figures 4–6). Apoptosis is a type of programmed cell death that can be detected using Annexin V and the DAPI reagent. On plasma membranes, annexin V binds to […] and DAPI can bind to DNA in cells. The dot plot and image data detect early and late apoptotic cells using these two fluorophores. […] Moreover, compound 9f-treated PC3 cells went through early apoptosis (6.27%), and late apoptosis phase (16.94%) (Figures 4(D) and 6). Likewise, the fluorescence images for 22RV1 (Figure 5) and PC3 (Figure 6) cells complement the dot plot data, as higher fluorescence of DAPI and RF images clearly distinguished compound 9f-treated cells from control. […]\nAnnexin V conjugated to fluorochromes (PE) retains its high affinity for phosphatidylserine (PS), making it a sensitive probe for flow cytometric analysis of apoptotic cells. […] When apoptosis is measured over time, cells can often be tracked from PE Annexin V and DAPI negative (viable, or no measurable apoptosis), to PE Annexin V positive and DAPI negative (early apoptosis), and finally to PE Annexin V and DAPI positive (end stage apoptosis and death). […]"}, "[5]": {"target": "T2, c-mesenchymal-epithelial transition factor (c-MET) (Homo sapiens, UniProt P08581)", "T2 construct": "purchased Reaction Biology Co. (Malvern, PA)", "T2 sequence (P08581 25-1390)": "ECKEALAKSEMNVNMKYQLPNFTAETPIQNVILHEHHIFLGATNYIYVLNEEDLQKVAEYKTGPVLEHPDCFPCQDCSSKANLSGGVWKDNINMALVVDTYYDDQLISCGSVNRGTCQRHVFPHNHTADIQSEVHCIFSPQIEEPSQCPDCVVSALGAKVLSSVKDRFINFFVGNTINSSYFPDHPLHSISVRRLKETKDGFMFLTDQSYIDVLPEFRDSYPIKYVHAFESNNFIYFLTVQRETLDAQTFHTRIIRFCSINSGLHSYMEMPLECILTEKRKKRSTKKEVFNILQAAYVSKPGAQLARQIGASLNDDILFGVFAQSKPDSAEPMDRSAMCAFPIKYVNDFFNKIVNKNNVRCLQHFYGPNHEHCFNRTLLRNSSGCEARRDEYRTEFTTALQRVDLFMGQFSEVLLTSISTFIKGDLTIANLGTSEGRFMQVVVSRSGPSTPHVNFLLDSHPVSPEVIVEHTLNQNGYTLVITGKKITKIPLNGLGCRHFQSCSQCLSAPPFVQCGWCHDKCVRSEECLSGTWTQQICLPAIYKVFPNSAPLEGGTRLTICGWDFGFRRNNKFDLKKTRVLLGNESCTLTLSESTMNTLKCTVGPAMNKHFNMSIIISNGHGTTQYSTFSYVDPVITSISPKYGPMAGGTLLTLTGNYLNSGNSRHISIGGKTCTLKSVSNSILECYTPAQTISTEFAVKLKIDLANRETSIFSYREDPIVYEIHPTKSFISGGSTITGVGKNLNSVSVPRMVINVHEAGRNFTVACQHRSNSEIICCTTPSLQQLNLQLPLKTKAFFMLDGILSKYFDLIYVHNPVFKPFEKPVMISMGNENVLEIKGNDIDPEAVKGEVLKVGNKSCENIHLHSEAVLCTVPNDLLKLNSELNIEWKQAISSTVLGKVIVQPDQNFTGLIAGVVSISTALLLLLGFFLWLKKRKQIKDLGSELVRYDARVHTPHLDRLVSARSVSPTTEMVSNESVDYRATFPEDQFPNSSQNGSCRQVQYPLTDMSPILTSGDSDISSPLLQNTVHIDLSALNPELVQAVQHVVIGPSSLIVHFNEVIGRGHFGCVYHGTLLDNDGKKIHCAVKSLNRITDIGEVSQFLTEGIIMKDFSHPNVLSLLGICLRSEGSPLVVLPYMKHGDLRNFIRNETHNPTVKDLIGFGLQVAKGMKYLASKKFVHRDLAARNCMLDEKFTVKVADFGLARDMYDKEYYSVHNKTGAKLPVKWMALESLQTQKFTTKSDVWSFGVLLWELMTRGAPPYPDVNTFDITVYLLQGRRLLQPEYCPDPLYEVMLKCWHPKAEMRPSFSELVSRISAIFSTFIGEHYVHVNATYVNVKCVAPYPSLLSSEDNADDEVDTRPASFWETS", "assay": "Small kinase panel, c-MET", "assay_type": "biochemical", "details": "read-out: % kinase inhibition (relative to DMSO control) c-MET", "experimental": "as §1"}, "[6]": {"target": "EGFR (Homo sapiens, UniProt P00533)", "sequence (P00533 25-1210)": "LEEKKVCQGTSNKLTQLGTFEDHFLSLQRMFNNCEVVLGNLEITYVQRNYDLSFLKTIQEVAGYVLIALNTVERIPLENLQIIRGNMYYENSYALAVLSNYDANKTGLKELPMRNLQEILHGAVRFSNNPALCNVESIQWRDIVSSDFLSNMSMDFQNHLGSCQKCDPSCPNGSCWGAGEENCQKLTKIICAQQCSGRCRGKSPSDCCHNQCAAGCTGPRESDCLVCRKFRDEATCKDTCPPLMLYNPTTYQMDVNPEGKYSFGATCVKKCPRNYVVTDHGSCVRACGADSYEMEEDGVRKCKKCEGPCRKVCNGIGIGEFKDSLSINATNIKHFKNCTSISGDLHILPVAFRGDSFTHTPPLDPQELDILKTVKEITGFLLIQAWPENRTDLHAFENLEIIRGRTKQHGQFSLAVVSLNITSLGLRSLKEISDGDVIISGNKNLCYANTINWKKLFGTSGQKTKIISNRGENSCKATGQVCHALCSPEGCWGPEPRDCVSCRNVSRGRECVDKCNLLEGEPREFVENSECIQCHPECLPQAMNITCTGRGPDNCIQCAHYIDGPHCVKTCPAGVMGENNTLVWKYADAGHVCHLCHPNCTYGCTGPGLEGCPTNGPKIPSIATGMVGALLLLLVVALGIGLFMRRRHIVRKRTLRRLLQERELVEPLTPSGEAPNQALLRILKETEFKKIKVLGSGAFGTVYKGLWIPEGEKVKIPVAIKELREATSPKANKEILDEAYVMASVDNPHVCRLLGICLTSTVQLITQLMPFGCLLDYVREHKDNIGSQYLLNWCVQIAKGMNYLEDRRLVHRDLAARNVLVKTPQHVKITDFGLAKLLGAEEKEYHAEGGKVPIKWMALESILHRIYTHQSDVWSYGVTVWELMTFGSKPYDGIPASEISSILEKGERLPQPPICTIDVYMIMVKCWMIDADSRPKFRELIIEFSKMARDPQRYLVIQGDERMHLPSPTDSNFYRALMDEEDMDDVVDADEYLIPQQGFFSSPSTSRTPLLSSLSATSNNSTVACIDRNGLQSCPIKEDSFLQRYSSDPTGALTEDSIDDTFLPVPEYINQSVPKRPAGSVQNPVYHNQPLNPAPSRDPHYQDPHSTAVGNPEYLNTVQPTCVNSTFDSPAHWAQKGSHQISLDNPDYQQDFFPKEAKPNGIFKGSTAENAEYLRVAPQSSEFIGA", "assay": "HotSpot kinase assay over EGFR (Reaction Biology)"}},
  "note": "pIC50: −log10 of the molar value.",
  "data": [
    {"smiles": "COc1cc2ncnc(Nc3ccc(Oc4cccc(C(F)(F)F)c4)c(Cl)c3)c2cc1OCCCCn1ccnc1[N+](=O)[O-]", "note": "[Compound 9f, N-(3-Chloro-4-(3-(trifluoromethyl)phenoxy)phenyl)-7-methoxy-6-(4-(2-nitro-1H-imidazol-1-yl)butoxy)quinazolin-4-amine]", "values": [
      {"measurement": "inhibition at 10 µM", "setting": "[1]", "result": 0.8, "unit": "%"},
      {"measurement": "G0/G1 phase Percent", "setting": "[2]", "result": 7.22, "unit": "%"},
      {"measurement": "G2/M phase Percent", "setting": "[2]", "result": 49.43, "unit": "%"},
      {"measurement": "S phase Percent", "setting": "[2]", "result": 28.14, "unit": "%"},
      {"measurement": "G0/G1 phase Percent", "setting": "[3]", "result": 6.08, "unit": "%"},
      {"measurement": "G2/M phase Percent", "setting": "[3]", "result": 62.74, "unit": "%"},
      {"measurement": "S phase Percent", "setting": "[3]", "result": 9.13, "unit": "%"},
      {"measurement": "early apoptosis (E.A)", "setting": "[4]", "result": 6.27, "unit": "%"},
      {"measurement": "late apoptosis (L.A)", "setting": "[4]", "result": 16.94, "unit": "%"},
      {"measurement": "inhibition at 10 µM", "setting": "[5]", "result": 24.6, "unit": "%"},
      {"measurement": "pIC50", "setting": "[6]", "result": 8.64},
      {"measurement": "fold of potency over EGFR compared to TAK-285", "setting": "[6]; ratio of IC50 values", "result": 10, "unit": "fold"},
      {"measurement": "fold of potency over EGFR compared to staurosporine", "setting": "[6]; ratio of IC50 values", "result": 38, "unit": "fold"},
      {"measurement": "inhibition at 10 µM", "setting": "[6]; read-out: % kinase inhibition EGFR", "result": 99.3, "unit": "%"}
    ]}
  ]
}
